The test system of data set [1] is human colon carcinoma HT-29. Nature of the data set: Clonogenic assay under aerobic and hypoxic conditions, HT-29. The data set is classed as cell-based. To be noted: HT 29 cells; for C10 hypoxic: 60 min drug exposure, concentration reducing plating efficiency to 10% of controls; for HCR: ratio of C10 under aerobic and hypoxic conditions; for RHT: ratio of hypoxic TPZ C10 to hypoxic compound C10. The protocol: (§1) Evaluation of the Cytotoxicity of Compounds by Clonogenic Assay Under Aerobic and Hypoxic Conditions.
(§2) Compounds representative of the invention were evaluated under both aerobic and hypoxic conditions in clonogenic assays, using three cell lines: human colon carcinoma HT-29, murine SCCVII, and human lung adenocarcinoma LXFL. Clonogenic survival was determined using aerobic and hypoxic SCCVII cell suspensions. Drug exposures were performed using continuously stirred and gassed single cell suspensions (10^6 cells/mL) at 37° C., equilibrated with 5% CO2 in air or N2 for 60 min before drug addition. After a 60 min drug exposure cells were washed by centrifugation and plated to determine colony formation Cytotoxicity was measured as the concentration required to reduce plating efficiency to 10% of controls (C10). The hypoxic cytotoxicity ratio (HCR) was determined as the ratio of the C10 values under aerobic and hypoxic conditions. The relative hypoxic toxicity (RHT) was determined as the ratio of hypoxic TPZ C10 to hypoxic BTO C10. Abbreviations used in Table 2 are:
(§3) C10=The concentration of drug (in micromolar) to reduce viable cell numbers to 10% of those of control cell cultures grown under the same conditions but not exposed to drug
(§4) RHT=Relative hypoxic toxicity is defined as the ratio of concentrations of Tirapazamine/test compound to give equal cell killing under hypoxic conditions.
(§5) HCR=Hypoxic cytotoxicity ratio is defined as the ratio of drug concentrations under aerobic and hypoxic condition to produce equal cell survival (10%) determined by clonogenic assay

For data set [2], the system named is human colon carcinoma HT-29. Nature of the data set: Proliferation assay (IC50) under aerobic and hypoxic conditions, HT-29. To be noted: for RHT: HT-29, ratio Tirapazamine/test compound under hypoxic conditions; for HCR: HT-29, ratio of IC50 under aerobic and hypoxic conditions; for IC50: Homo sapiens, HT-29, hypoxic (anoxia <0.001% O2), 4 h exposure. The format is cell-based. How it is done:
(§6) Evaluation of the Cytotoxicity of Compounds by Proliferation Assay (IC50) Under Aerobic and Hypoxic Conditions.
(§7) Compounds representative of the invention were evaluated under both aerobic and hypoxic conditions in a proliferation assay (IC50), using two cell lines: human colon carcinoma HT-29, and human cervical carcinoma SiHa.
(§8) Drug exposures were performed in 96-well plates (Nunc) using either a 37° C. humidified incubator (20% O2, 5% CO2) or in the incubator compartment (37° C.) of an anaerobic chamber (Shell Lab) where palladium catalyst scrubbed gas (90% N2, 5% H2, 5% CO2) ensures severe anoxia (<0.001% O2). For each experiment, compounds were simultaneously tested under both oxic and hypoxic conditions against the HT-29 cell line and included TPZ as an independent internal control at the front and back of the assay (n=2). Final data was pooled from a series of seven independent experiments and is calculated using inter-experimental means. In all cases, 8-methyl-5-nitroquinoline was used as a second internal control to confirm that strict hypoxia was present during the experiment. (Siim et al. Br. J. Cancer 1994, 70, 596-603). Cell cultures were grown in αMEM (Gibco) containing 5% heat inactivated FCS and maintained in exponential growth phase. For each individual experiment an appropriate number of cells were seeded (HT-29=1000) into wells in αMEM÷10% FCS+10 mM added glucose+100 μM 2′-deoxycytidine (2′dCyd), and allowed to attach for 3 h. High glucose (final concentration 17 mM) and the presence of 2′-dCyd minimize hypoxia-induced cell cycle arrest. Replicates were then exposed to BTOs, using 2-fold serial dilutions in triplicate, for a further 4 h. Subsequently cells were washed free of compound using complete media (without glucose/2′-dCyd) and allowed to grow for 5 (oxic) or 6 (anoxic) days. Plates were stained as described previously (Wilson et al., J. Med. Chem. 1989, 32, 31-38) and IC50 values determined.
(§9) IC50=The concentration of drug (in micromolar) to reduce viable cell numbers to 50% of those of control cell cultures grown under the same conditions but not exposed to drug
as §4
(§10) HCR=Hypoxic cytotoxicity ratio is defined as the ratio of drug concentrations under aerobic and hypoxic condition to produce equal cell survival (50%) determined by proliferation assay

Data set [3] relates to human lung adenocarcinoma LXFL. In words: Clonogenic assay under aerobic and hypoxic conditions, LXFL. The format is cell-based. To be noted: LXFL cells; for C10 hypoxic: 60 min drug exposure; for HCR: ratio of C10 under aerobic and hypoxic conditions; for RHT: ratio of hypoxic TPZ C10 to hypoxic compound C10. The protocol:
as §1, §2, §3, §4, §5

In data set [4] the test system is murine SCCVII. In words: Clonogenic assay under aerobic and hypoxic conditions, SCCVII. The data set is classed as cell-based. The note with it: SCVIII cells; for IC90: Mus musculus, 1 h, hypoxic, 60 min drug exposure, SN (hypoxic), read-out: C10 hypoxic; for HCR: ratio of C10 under aerobic and hypoxic conditions; for RHT: ratio of hypoxic TPZ C10 to hypoxic compound C10. The protocol: as §1, §2, §3, §4, §5

Data set [5] concerns human cervical carcinoma SiHa. Nature of the data set: Proliferation assay (IC50) under aerobic and hypoxic conditions, SiHa. The data set is classed as cell-based. The note with it: for IC50: Homo sapiens, hypoxic, 4 h exposure; for RHT: ratio Tirapazamine/test compound under hypoxic conditions; for HCR: ratio of IC50 under aerobic and hypoxic conditions. The protocol:
as §6, §7, §8, §9, §4, §10

The conditions of data set [6]: cited from earlier work.

As a reminder, the IC50 is the concentration at which inhibition is half-maximal. Lower therefore signals higher potency. In general, melting point refers to the temperature, or range, at which the solid turns liquid.

As for `[O-][n+]1nc(NCCCCCCNc2c3ccccc3nc3ccccc23)[n+]([O-])c2ccccc21` [Compound 11, N^1-(9-Acridinyl)-N^6-(1,4-dioxido-1,2,4-benzotriazin-3-yl)-1,6-hexanediamine], in data set [1], the C10 hypoxic is 0.12 µM, the HCR was 83.0 and the RHT turned out to be 416. Also, in data set [2], the RHT came to 370, the HCR is on record as 38 and the IC50 was 16 nM. In data set [3], the C10 hypoxic was 0.04 µM, the HCR is 35.0 and the RHT was found to be 450. Also, in data set [4], the IC90 amounted to 480 nM, the HCR was found to be 20.0 and the RHT is given as 16.7.

For the compound `O=C(NCCCNCCCNc1n[n+]([O-])c2ccccc2[n+]1[O-])c1cccc2cc3ccccc3nc12` [Compound 30, N-[3-({3-[(1,4-Dioxido-1,2,4-benzotriazin-3-yl)amino]propyl}amino)propyl]-4-acridinecarboxamide], in data set [1], the C10 hypoxic amounted to 0.9 µM, the HCR is recorded as 33.0 and the RHT turned out to be 78. For the same compound, in data set [2], the RHT was found to be 90; the HCR stood at 167; the midpoint of inhibition, the IC50, lay at 65 nM. In data set [3], the C10 hypoxic amounted to 0.4 µM, the HCR stood at 12.5 and the RHT worked out at 50. Also, in data set [5], half-maximal inhibition (IC50) was put at 31 nM, the RHT came out at 121 and the HCR is listed as 41. Moreover, in data set [4], the IC90 stood at 300 nM, the HCR is listed as 21.3 and the RHT is 20.

For `CN(CCCNC(=O)c1cccc2cc3ccccc3nc12)CCCNc1n[n+]([O-])c2ccccc2[n+]1[O-]` [Compound 41, N-{3-[{3-[(1,4-Dioxido-1,2,4-benzotriazin-3-yl)amino]propyl}(methyl)amino]propyl}-4-acridinecarboxamide], in data set [2], the RHT came to 134, the HCR is on record as 154 and the IC50 was 43 nM. In data set [3], the C10 hypoxic was found to be 0.4 µM, the HCR is 50 and the RHT is given as 37.5. In data set [4], the IC90 was 800 nM, the HCR stood at 52.5 and the RHT was found to be 12.5.

With `CN(CCNC(=O)c1cccc2ccc(-c3ccncc3)nc12)CCNc1n[n+]([O-])c2ccccc2[n+]1[O-]` [Compound 96, N-{2-[{2-[(1,4-Dioxido-1,2,4-benzotriazin-3-yl)amino]ethyl}(methyl)amino]ethyl}-2-(4-pyridinyl)-8-quinolinecarboxamide], the melting point was in the range of 130 to 135 °C. In data set [2], the RHT was found to be 31, the HCR was 77 and inhibition was half-maximal at 190 nM (IC50). Also, in data set [5], the midpoint of inhibition, the IC50, lay at 100 nM; the RHT came to 37; the HCR is listed as 78. Further, in data set [4], the IC90 was determined as 2300 nM, the HCR came out at 65 and the RHT is listed as 3.9.

On to `Nc1nc2ccccc2[n+]([O-])n1` [SR 4317], for which the “activity under aerobic or hypoxic conditions” value in data set [6] was “inactive”.

On to `Nc1nnc2ccccc2n1` [SR 4330], for which, in data set [6], the “activity under aerobic or hypoxic conditions” value was “inactive”.

The values are drawn from patent publication US20070191372A1, “Dna-targeted benzotriazine 1,4-dioxides and their use in cancer therapy” (Auckland Uniservices Limited, priority 2002, published 2007).
